{
  "source": "patent US9593084B2",
  "about": "(Parion Sciences, Inc., priority 2012, dated 2017)",
  "key": {"[1]": {"tested_on": "human bronchial epithelial (HBE) cells", "assay": "Airway surface liquid drug clearance and metabolism by human airway epithelium", "type": "in vitro ADME", "protocol": "The disappearance of 33 from the apical surface and airway epithelial metabolism were assessed in human bronchial epithelial (HBE) cells (Table 3). In these experiments 25 μL of a 25 μM solution of ENaC blocker was added to the apical surface of HBE cells grown at an air/liquid interface, and the drug and metabolite concentration in the apical and basolateral compartment was measured over 2 h by UPLC.\nTherefore, the compounds of formula (I) have a longer half-life on mucosal surfaces compared to these know compounds as evidenced by the data shown in Table G. The disappearance of Compound 33 from the apical surface and airway epithelial metabolism were assessed in HBE and compared to Comparative Example 1 (Table H). In these experiments 25 μL of a 25 μM solution of ENaC blocker was added to the apical surface of HBE cells grown at an air/liquid interface, and the drug concentration in the apical and basolateral compartment was measured over 2 h by UPLC."}, "[2]": {"biological_target": "T1, epithelial sodium channel (Canis lupus familiaris, UniProt A0A8I3MKE6+A0A8I3Q679+Q95165)", "T1 construct": "endogenous in cells; host or cells: primary canine bronchial epithelial cells cultured at air-liquid interface", "T1 sequence (A0A8I3Q679 1-649)": "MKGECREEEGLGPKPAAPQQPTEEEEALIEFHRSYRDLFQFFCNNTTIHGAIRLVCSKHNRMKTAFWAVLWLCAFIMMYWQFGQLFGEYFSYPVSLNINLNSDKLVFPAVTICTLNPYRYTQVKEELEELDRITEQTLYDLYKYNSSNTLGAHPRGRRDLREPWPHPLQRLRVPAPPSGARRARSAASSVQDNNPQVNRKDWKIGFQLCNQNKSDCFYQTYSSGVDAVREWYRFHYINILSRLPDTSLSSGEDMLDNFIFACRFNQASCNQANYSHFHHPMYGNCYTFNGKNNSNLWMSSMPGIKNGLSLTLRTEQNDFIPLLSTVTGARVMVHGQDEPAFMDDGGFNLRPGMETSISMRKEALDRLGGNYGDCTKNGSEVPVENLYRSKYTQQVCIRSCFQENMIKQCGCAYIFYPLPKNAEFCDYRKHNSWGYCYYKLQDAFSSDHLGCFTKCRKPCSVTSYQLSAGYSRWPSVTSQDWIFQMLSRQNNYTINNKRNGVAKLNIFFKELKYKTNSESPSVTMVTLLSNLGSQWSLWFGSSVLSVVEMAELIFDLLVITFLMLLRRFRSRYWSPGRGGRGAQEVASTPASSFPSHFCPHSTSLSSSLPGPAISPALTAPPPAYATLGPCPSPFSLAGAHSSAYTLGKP", "T1 sequence (Q95165 1-641)": "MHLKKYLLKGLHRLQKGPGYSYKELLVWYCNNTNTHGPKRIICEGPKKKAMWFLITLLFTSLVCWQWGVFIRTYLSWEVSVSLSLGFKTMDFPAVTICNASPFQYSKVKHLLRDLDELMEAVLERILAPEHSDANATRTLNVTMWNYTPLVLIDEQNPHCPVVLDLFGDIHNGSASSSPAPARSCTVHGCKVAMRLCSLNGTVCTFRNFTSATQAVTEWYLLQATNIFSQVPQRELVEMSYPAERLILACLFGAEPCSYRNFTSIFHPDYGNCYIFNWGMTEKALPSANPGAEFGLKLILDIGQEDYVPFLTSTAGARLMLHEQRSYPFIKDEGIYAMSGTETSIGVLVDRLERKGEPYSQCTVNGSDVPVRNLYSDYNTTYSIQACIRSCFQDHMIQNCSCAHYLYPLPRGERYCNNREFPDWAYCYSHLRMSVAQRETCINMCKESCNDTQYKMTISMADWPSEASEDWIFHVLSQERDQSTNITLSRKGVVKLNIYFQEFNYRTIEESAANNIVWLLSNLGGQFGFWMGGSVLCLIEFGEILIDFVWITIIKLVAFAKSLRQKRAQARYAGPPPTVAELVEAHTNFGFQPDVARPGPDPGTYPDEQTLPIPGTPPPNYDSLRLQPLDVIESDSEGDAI", "T1 sequence (A0A8I3MKE6 1-646)": "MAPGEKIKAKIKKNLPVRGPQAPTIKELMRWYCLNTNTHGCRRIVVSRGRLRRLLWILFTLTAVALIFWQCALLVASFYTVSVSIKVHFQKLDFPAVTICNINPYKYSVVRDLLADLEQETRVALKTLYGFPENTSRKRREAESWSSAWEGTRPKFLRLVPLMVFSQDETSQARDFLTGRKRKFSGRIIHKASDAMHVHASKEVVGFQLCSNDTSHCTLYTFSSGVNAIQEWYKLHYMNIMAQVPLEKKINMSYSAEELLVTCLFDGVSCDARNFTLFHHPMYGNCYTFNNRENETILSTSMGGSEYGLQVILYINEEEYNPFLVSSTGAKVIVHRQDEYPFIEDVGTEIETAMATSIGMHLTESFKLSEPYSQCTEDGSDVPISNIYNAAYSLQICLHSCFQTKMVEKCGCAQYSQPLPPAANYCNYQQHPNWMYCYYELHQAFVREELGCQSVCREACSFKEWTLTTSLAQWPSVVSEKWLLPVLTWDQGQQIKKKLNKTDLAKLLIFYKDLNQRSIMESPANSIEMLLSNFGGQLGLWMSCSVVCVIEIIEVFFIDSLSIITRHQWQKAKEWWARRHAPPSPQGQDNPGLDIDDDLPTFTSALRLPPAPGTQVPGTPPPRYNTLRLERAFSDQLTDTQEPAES", "assay": "Inhibition of short-circuit current (ISC) in airway epithelial monolayers in Ussing chambers", "type": "cell-based, canine", "conditions": "canine bronchial epithelial cells, short-circuit current; read-out: Potency of Sodium Channel Blockade IC50", "protocol": "One assay used to assess mechanism of action and/or potency of the compounds of the present invention involves the determination of lumenal drug inhibition of airway epithelial sodium currents measured under short circuit current (ISC) using airway epithelial monolayers mounted in Using chambers. Cells obtained from freshly excised human, dog, sheep or rodent airways are seeded onto porous 0.4 micron Snapwelff Inserts (CoStar), cultured at air-liquid interface (ALI) conditions in hormonally defined media, and assayed for sodium transport activity (ISC) while bathed in Krebs Bicarbonate Ringer (KBR) in Using chambers. All test drug additions are to the lumenal bath with half-log dose addition protocols (from 1×10^−11 M to 3×10^−5 M), and the cumulative change in ISC (inhibition) recorded. All drugs are prepared in dimethyl sulfoxide as stock solutions at a concentration of 1×10^−2 M and stored at −20° C. […] After the maximal concentration ([…]) is administered, the lumenal bath is exchanged three times with fresh drug-free KBR solution, and the resultant ISC measured after each wash for approximately 5 minutes in duration. Reversibility is defined as the percent return to the baseline value for sodium current after the third wash. All data from the voltage clamps are collected via a computer interface and analyzed off-line.\nDose-effect relationships for all compounds are considered and analyzed by the Prism 3.0 program."}, "[3]": {"conditions": "HBE cells at air/liquid interface, 25 μL of 25 μM apical, mean ± SD"}},
  "data": [
    {"smiles": "N=C(NCCCCc1ccc(C[C@H](N)C(=O)Nc2ccc(CCCN(C[C@H](O)[C@@H](O)[C@H](O)[C@H](O)CO)C[C@H](O)[C@@H](O)[C@H](O)[C@H](O)CO)cc2)c2ccccc12)NC(=O)c1nc(Cl)c(N)nc1N", "note": "[Compound 33, 3,5-diamino-N—(N-(4-(4-((S)-2-amino-3-(4-(3-(bis((2S,3R,4R,5R)-2,3,4,5,6-pentahydroxyhexyl)amino)propyl)phenylamino)-3-oxopropyl)naphthalen-1-yl)butyl)carbamimidoyl)-6-chloropyrazine-2-carboxamide]", "values": [
      {"measurement": "% of Apical Mass as Metabolites (2 h)", "setting": "[1]; [3]", "value": 4, "unit": "%"},
      {"measurement": "% on Basolateral Side as Metabolites (2 h)", "setting": "[1]; [3]", "value": 32, "unit": "%"},
      {"measurement": "fate on the apical side after 2 h incubation", "setting": "[1]; HBE cells, apical surface, 37° C.", "value": "mostly unmetabolized on the apical side"},
      {"measurement": "IC50", "setting": "[2]", "value": 21.8, "unit": "nM"}
    ]}
  ]
}
